Test results taken from patent US20040029215A1, “Process for producing rfrp” (priority 2000, published 2004).
Ends that are not written are not given here.

Test system: cAMP production
Assay: activity of inhibiting the cAMP production (method of Example 1 of WO 00/29441)
Type: cell-based
Conditions: polypeptide obtained in Example 4, compared with the synthetic polypeptide of the same sequence
Protocol: The activity of inhibiting the cAMP production was determined for the polypeptide of the invention obtained in Example 4 (the polypeptide having the amino acid sequence of SEQ ID NO: 7) according to the method described in Example 1 of WO 00/29441.

Substance: polypeptide having the amino acid sequence of SEQ ID NO: 7: polypeptide of the invention consisting of 37 amino acid residues, excised from a recombinant RFRP-1/CS23 fusion protein by S-cyanation and ammonolysis (SLNFEELKDWGPKNVIKMSTPAVNKMPHSFANLPLRF; not fully specified (C-terminus))
- activity of inhibiting the cAMP production: has the activity as much as the synthetic polypeptide
